Results: patent US20100216827A1 (Metabolex, Inc., priority 2008, published 2010)
Read-outs that look alike come from different tables or passages of the source.

Biological target: T1, human GPR120 (Homo sapiens, UniProt Q5NUL3)
T1 construct: host or cells: HEK293 cells coexpressing Gqi5
T1 sequence (Q5NUL3 1-361): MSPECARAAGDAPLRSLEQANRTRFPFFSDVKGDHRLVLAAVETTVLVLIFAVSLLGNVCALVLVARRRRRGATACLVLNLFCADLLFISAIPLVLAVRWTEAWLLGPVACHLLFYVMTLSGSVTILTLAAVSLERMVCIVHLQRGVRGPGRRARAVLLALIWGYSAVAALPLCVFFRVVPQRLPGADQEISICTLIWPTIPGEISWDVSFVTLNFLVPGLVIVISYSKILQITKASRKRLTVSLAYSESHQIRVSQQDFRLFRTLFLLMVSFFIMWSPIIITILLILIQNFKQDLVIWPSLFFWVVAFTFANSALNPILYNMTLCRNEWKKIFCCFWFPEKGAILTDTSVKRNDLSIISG
Assay: Intracellular Ca2+ (FLIPR Calcium 4, Flexstation) assay in human GPR120 stable HEK293 cell line coexpressing Gqi5
Format: cell-based
Details: for % Activity at 5 μM: 5 μM compound compared to the maximal activity of GW9508 at 6.7 μM (100%); for EC50: human GPR120 stably expressing cells, 8 concentrations 0.00001 to 20 μM
Method in brief: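 Calcium 4 dye-loaded HEK293 cells expressing N-terminally Flag-tagged human GPR120 with Gqi5 (HBSS/20 mM HEPES, pH 7.4; 50 min, 37 °C). Fluorescence (485/525 nm) read for 90 s after addition of compound at 8 concentrations, 0.00001–20 μM; EC50 from Max−Min change. % activity at 5 μM versus maximal GW9508 response (6.7 μM).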

[1] = read-out: EC50 between >1 μM and ≦10 μM

Compound | % Activity at 5 μM | EC50 (read-out: EC50 > 10 μM) | EC50 (read-out: EC50 ≦ 1 μM) | EC50 [1]
Cc1cc(COc2c(F)cc(CC(C)C(=O)O)cc2F)n(-c2ncc(Cl)cn2)n1 (centres unmarked) [Example 110, 3-(4-((1-(5-Chloropyrimidin-2-yl)-3-methyl-1H-pyrazol-5-yl)methoxy)-3,5-difluorophenyl)-2-methylpropanoic acid] | 19% | > 10000 nM | – | –
Cc1cc(COc2ccc(C=C3CC(C(=O)O)C3)cc2)n(-c2ccc(Cl)cc2)n1 (centres unmarked) [Example 111, 3-(4-((1-(4-Chlorophenyl)-3-methyl-1H-pyrazol-5-yl)methoxy)benzylidene)cyclobutanecarboxylic acid] | 80% | – | ≤ 1000 nM | –
COc1cc(CC(C)C(=O)O)ccc1OCc1cc(C)nn1-c1ccc(Cl)cc1 (centres unmarked) [Example 112, 3-(4-((1-(4-Chlorophenyl)-3-methyl-1H-pyrazol-5-yl)methoxy)-3-methoxyphenyl)-2-methylpropanoic acid] | 83% | – | – | 1000 to 10000 nM
Cc1cc(COc2c(Cl)cc(CC(C)C(=O)O)cc2Cl)n(-c2ccc(Cl)cc2)n1 (centres unmarked) [Example 113, 3-(3,5-Dichloro-4-((1-(4-chlorophenyl)-3-methyl-1H-pyrazol-5-yl)methoxy)phenyl)-2-methylpropanoic acid] | 92% | – | ≤ 1000 nM | –
CC(Cc1cc(F)c(OCc2c(C(F)(F)F)nn(C)c2Oc2ccccc2)c(F)c1)C(=O)O (centres unmarked) [Example 114, 3-(3,5-Difluoro-4-((1-methyl-5-phenoxy-3-(trifluoromethyl)-1H-pyrazol-4-yl)methoxy)phenyl)-2-methylpropanoic acid] | 111% | – | ≤ 1000 nM | –
CC(Cc1cc(F)c(OCc2c(C(F)(F)F)nn(C)c2Oc2ccc(Cl)cc2)c(F)c1)C(=O)O (centres unmarked) [Example 115, 3-(4-((5-(4-Chlorophenoxy)-1-methyl-3-(trifluoromethyl)-1H-pyrazol-4-yl)methoxy)-3,5-difluorophenyl)-2-methylpropanoic Acid] | 118% | – | ≤ 1000 nM | –
Cc1cc(COc2c(F)cc(CC(C)C(=O)O)cc2F)c(-c2ccccc2)o1 (centres unmarked) [Example 116, 3-(3,5-Difluoro-4-((5-methyl-2-phenylfuran-3-yl)methoxy)phenyl)-2-methylpropanoic acid] | 115% | – | ≤ 1000 nM | –
CC(Cc1cc(F)c(OCc2cc(C(F)(F)F)nn2-c2ccc(Cl)cc2)c(F)c1)C(=O)O (centres unmarked) [Example 117, 3-(4-((1-(4-chlorophenyl)-3-(trifluoromethyl)-1H-pyrazol-5-yl)methoxy)-3,5-difluorophenyl)-2-methylpropanoic acid] | 105% | – | ≤ 1000 nM | –
CCc1cc(OCc2cc(C)nn2-c2ccc(Cl)cc2)ccc1CCC(=O)O [Example 118, 3-(4-((1-(4-chlorophenyl)-3-methyl-1H-pyrazol-5-yl)methoxy)-2-ethylphenyl)propanoic acid] | 103% | – | ≤ 1000 nM | –
O=C(O)CC1CCc2cc(OCc3cc(C(F)(F)F)nn3-c3ccc(Cl)cc3)ccc21 (centres unmarked) [Example 119, 2-(5-((1-(4-chlorophenyl)-3-(trifluoromethyl)-1H-pyrazol-5-yl)methoxy)-2,3-dihydro-1H-inden-1-yl)acetic acid] | 92% | – | – | –
Cc1cc(COc2ccc3c(c2)CCC3CC(=O)O)n(-c2ccc3c(c2)CCC3)n1 (centres unmarked) [Example 120, 2-(5-((1-(2,3-dihydro-1H-inden-5-yl)-3-methyl-1H-pyrazol-5-yl)methoxy)-2,3-dihydro-1H-inden-1-yl)acetic acid] | 94% | – | ≤ 1000 nM | –
CCc1ccc(-n2nc(C)cc2COc2ccc3c(c2)CCC3CC(=O)O)cc1 (centres unmarked) [Example 121, 2-(5-((1-(4-ethylphenyl)-3-methyl-1H-pyrazol-5-yl)methoxy)-2,3-dihydro-1H-inden-1-yl)acetic acid] | 94% | – | ≤ 1000 nM | –
Cc1cc(COc2c(F)cc(CC(C)C(=O)O)cc2F)n(-c2ccccc2)n1 (centres unmarked) [Example 122, 3-(3,5-difluoro-4-((3-methyl-1-phenyl-1H-pyrazol-5-yl)methoxy)phenyl)-2-methylpropanoic acid] | 91% | – | ≤ 1000 nM | –
CCc1ccc(-n2nc(C)cc2COc2ccc3c(c2)CCCC3CC(=O)O)cc1 (centres unmarked) [Example 123, 2-(6-((1-(4-ethylphenyl)-3-methyl-1H-pyrazol-5-yl)methoxy)-1,2,3,4-tetrahydronaphthalen-1-yl)acetic acid] | 67% | > 10000 nM | – | –
Cc1cc(COc2c(F)cc(CC(C)C(=O)O)cc2F)n(-c2ccccn2)n1 (centres unmarked) [Example 124, 3-(3,5-difluoro-4-((3-methyl-1-(pyridin-2-yl)-1H-pyrazol-5-yl)methoxy)phenyl)-2-methylpropanoic acid] | 33% | > 10000 nM | – | –
Cc1cc(COc2ccc(C(C)(C)CC(=O)O)cc2)n(-c2ccc(Cl)cc2)n1 [Example 125, 3-(4-((1-(4-chlorophenyl)-3-methyl-1H-pyrazol-5-yl)methoxy)phenyl)-3-methylbutanoic acid] | 47% | – | – | 1000 to 10000 nM
CCc1ccc(-n2nc(C)cc2COc2ccc(C(C)(C)CC(=O)O)cc2)cc1 [Example 126, 3-(4-((1-(4-ethylphenyl)-3-methyl-1H-pyrazol-5-yl)methoxy)phenyl)-3-methylbutanoic acid] | 48% | – | – | 1000 to 10000 nM
Cc1cc(COc2ccc(CCCC(=O)O)cc2)n(-c2ccc(Cl)cc2)n1 [Example 127, 4-(4-((1-(4-chlorophenyl)-3-methyl-1H-pyrazol-5-yl)methoxy)phenyl)butanoic acid] | 112% | – | ≤ 1000 nM | –
Cc1cc(COc2c(F)cc(CCCC(=O)O)cc2F)n(-c2ccc(Cl)cc2)n1 [Example 128, 4-(4-((1-(4-chlorophenyl)-3-methyl-1H-pyrazol-5-yl)methoxy)-3,5-difluorophenyl)butanoic acid] | 112% | – | ≤ 1000 nM | –
CCc1ccc(-n2nc(C)cc2COc2ccc(CCCC(=O)O)cc2)cc1 [Example 129, 4-(4-((1-(4-ethylphenyl)-3-methyl-1H-pyrazol-5-yl)methoxy)phenyl)butanoic acid] | 99% | – | ≤ 1000 nM | –
CCc1ccc(-n2nc(C)cc2COc2c(F)cc(CCCC(=O)O)cc2F)cc1 [Example 130, 4-(4-((1-(4-ethylphenyl)-3-methyl-1H-pyrazol-5-yl)methoxy)-3,5-difluorophenyl)butanoic acid] | 103% | – | ≤ 1000 nM | –
Cc1cc(COc2ccc(CCC(C)C(=O)O)cc2)n(-c2ccc(Cl)cc2)n1 (centres unmarked) [Example 131, 4-(4-((1-(4-chlorophenyl)-3-methyl-1H-pyrazol-5-yl)methoxy)phenyl)-2-methylbutanoic acid] | 68% | – | – | 1000 to 10000 nM
CCc1ccc(-n2nc(C)cc2COc2ccc(CCC(C)C(=O)O)cc2)cc1 (centres unmarked) [Example 132, 4-(4-((1-(4-ethylphenyl)-3-methyl-1H-pyrazol-5-yl)methoxy)phenyl)-2-methylbutanoic acid] | 85% | – | – | 1000 to 10000 nM
COc1cc(CCC(=O)O)ccc1OCc1cc(C)nn1-c1ccc(Cl)cc1 [Example 133, 3-(4-((1-(4-chlorophenyl)-3-methyl-1H-pyrazol-5-yl)methoxy)-3-methoxyphenyl)propanoic acid] | 107% | – | – | 1000 to 10000 nM
